# Measurements reported in patent publication US20260297080A1, “BICYCLIC COMPOUNDS AS CDK INHIBITORS” (BeOne Medicines I GmbH, priority 2022, published 2026).
# Assays:
# CDK2/Cyclin E1 = CDK2/Cyclin E1 (Homo sapiens, UniProt P24941); experiment: CDK2/Cyclin E1 Biochemical Assay (TR-FRET), 0.060 mM ATP; conditions: 0.15 μM Rb (Ser780)-biotin substrate, pH7.0, 60 min preincubation, 120 min reaction, room temperature
# Method in brief: (§1)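 Percent inhibition was derived from the 665 nm/620 nm TR-FRET ratio after a 120-minute room-temperature reaction on 0.15 μM Rb (Ser780)-biotin, preceded by 60-minute enzyme–compound preincubation. IC50 came from four-parameter logistic fitting.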
# CDK1/Cyclin B1 = CDK1/Cyclin B1 (Homo sapiens, UniProt P06493); experiment: CDK1/Cyclin B1 Biochemical Assay (TR-FRET), 0.015 mM ATP; conditions: 0.15 μM Rb (Ser780)-biotin substrate, pH7.0, 60 min preincubation, 120 min reaction, room temperature
# Chain of CDK1/Cyclin B1 (P06493 whole entry): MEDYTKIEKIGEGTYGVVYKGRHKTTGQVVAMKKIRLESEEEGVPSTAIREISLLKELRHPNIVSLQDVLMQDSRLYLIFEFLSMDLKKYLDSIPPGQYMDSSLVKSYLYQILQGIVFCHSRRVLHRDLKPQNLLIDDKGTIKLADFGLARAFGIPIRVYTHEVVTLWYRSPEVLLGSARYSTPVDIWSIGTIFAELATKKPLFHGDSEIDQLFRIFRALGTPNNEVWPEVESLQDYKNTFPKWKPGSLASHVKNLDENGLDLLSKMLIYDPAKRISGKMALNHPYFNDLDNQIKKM
# Chain of CDK1/Cyclin B1 (P14635 whole entry partner): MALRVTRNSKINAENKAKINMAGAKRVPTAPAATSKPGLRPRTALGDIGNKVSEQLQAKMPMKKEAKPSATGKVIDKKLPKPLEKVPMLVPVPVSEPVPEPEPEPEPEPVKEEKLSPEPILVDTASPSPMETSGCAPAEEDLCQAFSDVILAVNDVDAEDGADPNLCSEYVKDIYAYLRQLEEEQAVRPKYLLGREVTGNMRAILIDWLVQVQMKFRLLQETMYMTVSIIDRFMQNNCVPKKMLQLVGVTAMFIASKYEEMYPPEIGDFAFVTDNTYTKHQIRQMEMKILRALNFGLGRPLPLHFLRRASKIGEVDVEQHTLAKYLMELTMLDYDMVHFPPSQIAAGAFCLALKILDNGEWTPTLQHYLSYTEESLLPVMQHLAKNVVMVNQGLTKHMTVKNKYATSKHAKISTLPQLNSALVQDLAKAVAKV
# Method in brief: as §1
Structure (SMILES),IC50 (CDK2/Cyclin E1),IC50 (CDK1/Cyclin B1)
"O=C(O[C@H]1CC[C@@H](c2cc(Nc3ccc4c(c3F)CS(=O)(=O)N4)n[nH]2)C1)N1CCOCC1 (relative stereo) [Example 415, cis-3-(3-((4-fluoro-2,2-dioxido-1,3-dihydrobenzo[c]isothiazol-5-yl)amino)-1H-pyrazol-5-yl)cyclopentyl morpholine-4-carboxylate]",26 nM,700 nM
"COCC(C)(C)NC(=O)O[C@H]1CC[C@@H](c2cc(Nc3ccc4c(c3F)CS(=O)(=O)N4CC(F)(F)F)n[nH]2)C1 (relative stereo) [Example 416, cis-3-(3-((4-fluoro-2,2-dioxido-1-(2,2,2-trifluoroethyl)-1,3-dihydrobenzo[c]isothiazol-5-yl)amino)-1H-pyrazol-5-yl)cyclopentyl(1-methoxy-2-methylpropan-2-yl)carbamate]",2.1 nM,67 nM
"O=C(NC1(CO)CCC1)O[C@H]1CC[C@@H](c2cc(Nc3ccc4c(c3)CS(=O)(=O)N4)n[nH]2)C1 (relative stereo) [Example 417, cis-3-(3-((2,2-dioxido-1,3-dihydrobenzo[c]isothiazol-5-yl)amino)-1H-pyrazol-5-yl)cyclopentyl(1-(hydroxymethyl)cyclobutyl)carbamate]",3 nM,18 nM
"O=C(NC1(CO)CCC1)O[C@H]1CC[C@@H](c2cc(Nc3ccc4c(c3F)CS(=O)(=O)N4)n[nH]2)C1 (relative stereo) [Example 418, cis-3-(3-((4-fluoro-2,2-dioxido-1,3-dihydrobenzo[c]isothiazol-5-yl)amino)-1H-pyrazol-5-yl)cyclopentyl(1-(hydroxymethyl)cyclobutyl)carbamate]",2 nM,32 nM
"CC(C)NC(=O)O[C@H]1CC[C@@H](c2cc(Nc3cc4c(cc3F)CNS4(=O)=O)n[nH]2)C1 (single isomer, unassigned) [Example 1a, cis-3-(3-((5-fluoro-1,1-dioxido-2,3-dihydrobenzo[d]isothiazol-6-yl)amino)-1H-pyrazol-5-yl)cyclopentyl isopropylcarbamate]",22 nM,860 nM
"CC(C)NC(=O)O[C@H]1CC[C@@H](c2cc(Nc3cc4c(cc3F)CNS4(=O)=O)n[nH]2)C1 (single isomer, unassigned) [Example 1b, cis-3-(3-((5-fluoro-1,1-dioxido-2,3-dihydrobenzo[d]isothiazol-6-yl)amino)-1H-pyrazol-5-yl)cyclopentyl isopropylcarbamate]",18 nM,259 nM
"CC(C)NC(=O)O[C@H]1CC[C@@H](c2cc(Nc3ccc4c(c3)S(=O)(=O)NC4C)[nH]n2)C1 (single isomer, unassigned) [Example 5a, cis-3-(5-((3-methyl-1,1-dioxido-2,3-dihydrobenzo[d]isothiazol-6-yl)amino)-1H-pyrazol-3-yl)cyclopentyl isopropylcarbamate]",2.2 nM,49 nM
"CC(C)NC(=O)O[C@H]1CC[C@@H](c2cc(Nc3ccc4c(c3)S(=O)(=O)NC4C)[nH]n2)C1 (single isomer, unassigned) [Example 5b, cis-3-(5-((3-methyl-1,1-dioxido-2,3-dihydrobenzo[d]isothiazol-6-yl)amino)-1H-pyrazol-3-yl)cyclopentyl isopropylcarbamate]",1 nM,14 nM
"CC(C)NC(=O)O[C@H]1CC[C@@H](c2cc(Nc3ccc4c(c3)S(=O)(=O)NC4C)[nH]n2)C1 (single isomer, unassigned) [Example 5c, cis-3-(5-((3-methyl-1,1-dioxido-2,3-dihydrobenzo[d]isothiazol-6-yl)amino)-1H-pyrazol-3-yl)cyclopentyl isopropylcarbamate]",4.2 nM,95 nM
"CC(C)NC(=O)O[C@H]1CC[C@@H](c2cc(Nc3ccc4c(c3)S(=O)(=O)NC4C)[nH]n2)C1 (single isomer, unassigned) [Example 5d, cis-3-(5-((3-methyl-1,1-dioxido-2,3-dihydrobenzo[d]isothiazol-6-yl)amino)-1H-pyrazol-3-yl)cyclopentyl isopropylcarbamate]",2.9 nM,45 nM
"CC(C)NC(=O)O[C@@H]1CC[C@H](c2cc(Nc3ccc4c(c3)CS(=O)(=O)N4)n[nH]2)C1 (single isomer, unassigned) [Example 7a]",0.9 nM,28 nM
"CC(C)NC(=O)O[C@H]1CC[C@@H](c2cc(Nc3ccc4c(c3)CS(=O)(=O)N4)n[nH]2)C1 (single isomer, unassigned) [Example 7b]",0.9 nM,17 nM
"CC(C)NC(=O)O[C@H]1CC[C@@H](c2cc(Nc3ccc4c(c3F)CNS4(=O)=O)n[nH]2)C1 (single isomer, unassigned) [Example 9a, cis-3-(3-((4-fluoro-1,1-dioxido-2,3-dihydrobenzo[d]isothiazol-5-yl)amino)-1H-pyrazol-5-yl)cyclopentyl isopropylcarbamate]",4.5 nM,375 nM
"CC(C)NC(=O)O[C@H]1CC[C@@H](c2cc(Nc3ccc4c(c3F)CNS4(=O)=O)n[nH]2)C1 (single isomer, unassigned) [Example 9b, cis-3-(3-((4-fluoro-1,1-dioxido-2,3-dihydrobenzo[d]isothiazol-5-yl)amino)-1H-pyrazol-5-yl)cyclopentyl isopropylcarbamate]",2.5 nM,94 nM

# Further lines, results first:
IC50 (CDK2/Cyclin E1),IC50 (CDK1/Cyclin B1),Structure (SMILES)
10 nM,921 nM,"CC(C)NC(=O)O[C@H]1CC[C@@H](c2cc(Nc3cc4c(cc3F)S(=O)(=O)NC4)n[nH]2)C1 (single isomer, unassigned) [Example 12a, cis-3-(3-((6-fluoro-1,1-dioxido-2,3-dihydrobenzo[d]isothiazol-5-yl)amino)-1H-pyrazol-5-yl)cyclopentyl isopropylcarbamate]"
9.3 nM,359 nM,"CC(C)NC(=O)O[C@H]1CC[C@@H](c2cc(Nc3cc4c(cc3F)S(=O)(=O)NC4)n[nH]2)C1 (single isomer, unassigned) [Example 12b, cis-3-(3-((6-fluoro-1,1-dioxido-2,3-dihydrobenzo[d]isothiazol-5-yl)amino)-1H-pyrazol-5-yl)cyclopentyl isopropylcarbamate]"
38 nM,1500 nM,"CC(C)NC(=O)O[C@H]1CC[C@@H](c2cc(Nc3ccc4c(c3Cl)CNS4(=O)=O)n[nH]2)C1 (single isomer, unassigned) [Example 38a, cis-3-(3-((4-chloro-1,1-dioxido-2,3-dihydrobenzo[d]isothiazol-5-yl)amino)-1H-pyrazol-5-yl)cyclopentyl isopropylcarbamate]"
13 nM,279 nM,"CC(C)NC(=O)O[C@H]1CC[C@@H](c2cc(Nc3ccc4c(c3Cl)CNS4(=O)=O)n[nH]2)C1 (single isomer, unassigned) [Example 38b, cis-3-(3-((4-chloro-1,1-dioxido-2,3-dihydrobenzo[d]isothiazol-5-yl)amino)-1H-pyrazol-5-yl)cyclopentyl isopropylcarbamate]"
49 nM,1360 nM,"CCCNC(=O)O[C@H]1CC[C@@H](c2cc(Nc3ccc4c(c3Cl)CNS4(=O)=O)n[nH]2)C1 (single isomer, unassigned) [Example 39a, cis-3-(3-((4-chloro-1,1-dioxido-2,3-dihydrobenzo[d]isothiazol-5-yl)amino)-1H-pyrazol-5-yl)cyclopentyl propylcarbamate]"
26 nM,390 nM,"CCCNC(=O)O[C@H]1CC[C@@H](c2cc(Nc3ccc4c(c3Cl)CNS4(=O)=O)n[nH]2)C1 (single isomer, unassigned) [Example 39b, cis-3-(3-((4-chloro-1,1-dioxido-2,3-dihydrobenzo[d]isothiazol-5-yl)amino)-1H-pyrazol-5-yl)cyclopentyl propylcarbamate]"
5.4 nM,370 nM,"CC1(NC(=O)O[C@H]2CC[C@@H](c3cc(Nc4ccc5c(c4Cl)CNS5(=O)=O)n[nH]3)C2)CC1 (single isomer, unassigned) [Example 40a, cis-3-(3-((4-chloro-1,1-dioxido-2,3-dihydrobenzo[d]isothiazol-5-yl)amino)-1H-pyrazol-5-yl)cyclopentyl(1-methylcyclopropyl)carbamate]"
3.1 nM,181 nM,"CC1(NC(=O)O[C@H]2CC[C@@H](c3cc(Nc4ccc5c(c4Cl)CNS5(=O)=O)n[nH]3)C2)CC1 (single isomer, unassigned) [Example 40b, cis-3-(3-((4-chloro-1,1-dioxido-2,3-dihydrobenzo[d]isothiazol-5-yl)amino)-1H-pyrazol-5-yl)cyclopentyl(1-methylcyclopropyl)carbamate]"
14 nM,891 nM,"CCCNC(=O)O[C@H]1CC[C@@H](c2cc(Nc3cc4c(cc3F)S(=O)(=O)NC4)n[nH]2)C1 (single isomer, unassigned) [Example 42a, cis-3-(3-((6-fluoro-1,1-dioxido-2,3-dihydrobenzo[d]isothiazol-5-yl)amino)-1H-pyrazol-5-yl)cyclopentyl propylcarbamate]"
5.5 nM,128 nM,"CCCNC(=O)O[C@H]1CC[C@@H](c2cc(Nc3cc4c(cc3F)S(=O)(=O)NC4)n[nH]2)C1 (single isomer, unassigned) [Example 42b, cis-3-(3-((6-fluoro-1,1-dioxido-2,3-dihydrobenzo[d]isothiazol-5-yl)amino)-1H-pyrazol-5-yl)cyclopentyl propylcarbamate]"
1.3 nM,138 nM,"CC1(NC(=O)O[C@H]2CC[C@@H](c3cc(Nc4cc5c(cc4F)S(=O)(=O)NC5)n[nH]3)C2)CC1 (single isomer, unassigned) [Example 44a, cis-3-(3-((6-fluoro-1,1-dioxido-2,3-dihydrobenzo[d]isothiazol-5-yl)amino)-1H-pyrazol-5-yl)cyclopentyl(1-methylcyclopropyl)carbamate]"
